Source: the supplement of paper PMC11281043

How the values were obtained:
Details in all cases: exposure: 6-8 hpf to 5 dpf, scored at 6 dpf
Danio rerio embryo/larva [1] = assay: BMC any abnormality; max tested concentration (log10 uM): 2; higher = less potent
Method: (§1)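 Zebrafish embryos (with chorion) were exposed from 6-8 hpf to each PFAS (8-point half-log series, top concentration up to 100 uM, 0.4% DMSO, sealed plates, 26 C; n = 6 embryos per concentration), rinsed at 5 dpf and scored at 6 dpf by two blinded observers for mortality, hatching and malformations. Endpoint scores are the % of living larvae affected (dead larvae excluded; […]). Curves were fitted with tcpl (cutoff 16%), and the BMC is the concentration at a benchmark response of 21.6%.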

Danio rerio embryo/larva [2] = assay: max % larvae dead across tested concentrations; max tested concentration (log10 uM): 2; higher = more toxic; extreme values may be limits of the assay
Danio rerio embryo/larva [3] = assay: max % larvae with any abnormality across tested concentrations; max tested concentration (log10 uM): 2; higher = more toxic; extreme values may be limits of the assay
Danio rerio embryo/larva [4] = assay: BMC edema; higher = less potent
Method: as §1

Danio rerio embryo/larva [5] = assay: BMC swim bladder non-inflation; higher = less potent
Method: as §1

Danio rerio embryo/larva [6] = assay: BMC abnormal position; higher = less potent
Method: as §1

Danio rerio embryo/larva [7] = assay: BMC mortality; max tested concentration (log10 uM): 2; higher = less potent
Method: as §1

Danio rerio embryo/larva [8] = assay: max % larvae unhatched across tested concentrations; max tested concentration (log10 uM): 2; higher = more toxic
Danio rerio embryo/larva [9] = assay: BMC craniofacial defects; higher = less potent
Method: as §1

Danio rerio embryo/larva [10] = assay: BMC general abnormality; higher = less potent
Method: as §1

Danio rerio embryo/larva [11] = assay: max % larvae with spinal defects across tested concentrations; higher = more toxic; extreme values may be limits of the assay
Danio rerio embryo/larva [12] = assay: max % larvae with pigmentation defects across tested concentrations; higher = more toxic
Danio rerio embryo/larva [13] = assay: max % larvae with abnormal position across tested concentrations; higher = more toxic; extreme values may be limits of the assay
Danio rerio embryo/larva [14] = assay: max % larvae generally abnormal across tested concentrations; higher = more toxic; extreme values may be limits of the assay
Danio rerio embryo/larva [15] = assay: max % larvae with uninflated swim bladder across tested concentrations; higher = more toxic; extreme values may be limits of the assay
Danio rerio embryo/larva [16] = assay: max % larvae with edema across tested concentrations; higher = more toxic; extreme values may be limits of the assay
Danio rerio embryo/larva [17] = assay: max % larvae with craniofacial defects across tested concentrations; higher = more toxic; extreme values may be limits of the assay
Danio rerio embryo/larva [18] = assay: max % larvae with blood pooling across tested concentrations; higher = more toxic; extreme values may be limits of the assay
Danio rerio embryo/larva [19] = assay: max % larvae with tail defects across tested concentrations; higher = more toxic; extreme values may be limits of the assay
[20] = max tested concentration (log10 uM): 2
[21] = max tested concentration (log10 uM): 1.47712
[22] = max tested concentration (log10 uM): 1
[23] = max tested concentration (log10 uM): 0.477121

Row | SMILES | BMC any abnormality (Danio rerio embryo/larva [1]) | max % larvae dead across tested concentrations (Danio rerio embryo/larva [2]) | max % larvae (Danio rerio embryo/larva [3]) | BMC edema (Danio rerio embryo/larva [4]; [20]) | BMC swim bladder non-inflation (Danio rerio embryo/larva [5]; [20]) | BMC mortality (Danio rerio embryo/larva [7]) | max % larvae unhatched across tested concentrations (Danio rerio embryo/larva [8]) | other results
1 | O=C(O)C(F)(F)C(F)(F)C(F)(F)C(F)(F)C(F)(F)C(F)(F)C(F)(F)C(F)(F)F [Perfluorononanoic acid] | 25.5 µM | 75% | 100% | 28 µM | 25.5 µM | 73.9 µM | 0% | BMC abnormal position (Danio rerio embryo/larva [6]; [20]): 87.8 µM
2 | N=C(N)C(F)(F)C(F)(F)C(F)(F)C(F)(F)C(F)(F)C(F)(F)C(F)(F)F [Perfluorooctanamidine] | 19.5 µM | 100% | 100% |  |  | 19.5 µM | 0% | 
3 | O=C(O)CCC(F)(F)C(F)(F)C(F)(F)C(F)(F)C(F)(F)F [2H,2H,3H,3H-Perfluorooctanoic acid] | 8.77 µM | 100% | 100% |  |  | 24.8 µM | 0% | BMC edema (Danio rerio embryo/larva [4]; [21]): 9.38 µM; BMC swim bladder non-inflation (Danio rerio embryo/larva [5]; [21]): 9.28 µM; BMC abnormal position (Danio rerio embryo/larva [6]; [21]): 12.2 µM
4 | O=P(O)(O)CCC(F)(F)C(F)(F)C(F)(F)C(F)(F)C(F)(F)C(F)(F)C(F)(F)C(F)(F)F [((Perfluorooctyl)ethyl)phosphonic acid] | 0.578 µM | 100% | 100% | 1.37 µM | 0.92 µM | 10.4 µM | 0% | BMC abnormal position (Danio rerio embryo/larva [6]; [20]): 63.6 µM
5 | FC(F)(I)C(F)(F)C(F)(F)C(F)(F)I [Perfluoro-1,4-diiodobutane] | 14.8 µM | 16.7% | 70.8% | 20.6 µM | 25.6 µM |  | 0% | BMC craniofacial defects (Danio rerio embryo/larva [9]; [20]): 74.2 µM
6 | OCCC(F)(F)C(F)(F)C(F)(F)C(F)(F)C(F)(F)C(F)(F)F [2-(Perfluorohexyl)ethanol] | 10.4 µM | 8.33% | 89.6% | 3.37 µM | 26.2 µM |  | 0% | BMC craniofacial defects (Danio rerio embryo/larva [9]; [20]): 27.9 µM
7 | CCNS(=O)(=O)C(F)(F)C(F)(F)C(F)(F)C(F)(F)C(F)(F)C(F)(F)C(F)(F)C(F)(F)F [N-Ethylperfluorooctane sulfonamide] | 2.37 µM | 100% | 100% |  |  | 19.5 µM | 0% | BMC edema (Danio rerio embryo/larva [4]; [22]): 2.88 µM; BMC swim bladder non-inflation (Danio rerio embryo/larva [5]; [22]): 3.13 µM
8 | O=C(O)C(F)(F)C(F)(F)C(F)(F)C(F)(F)C(F)(F)C(F)(F)C(F)(F)C(F)(F)C(F)(F)C(F)F [11-H-Perfluoroundecanoic acid] | 12.9 µM | 100% | 100% |  |  | 11.2 µM | 0% | BMC edema (Danio rerio embryo/larva [4]; [21]): 12.6 µM
9 | OC(C(F)(F)F)(C(F)(F)F)C(O)(C(F)(F)F)C(F)(F)F [Perfluoropinacol] | 1.94 µM |  | 100% |  |  |  | 0% | BMC edema (Danio rerio embryo/larva [4]; [23]): 2.52 µM; BMC swim bladder non-inflation (Danio rerio embryo/larva [5]; [23]): 2.28 µM; BMC craniofacial defects (Danio rerio embryo/larva [9]; [23]): 2.47 µM
10 | OCC(F)(F)C(F)(F)C(F)(F)C(F)(F)C(F)(F)C(F)(F)C(F)(F)C(F)(F)CO [1H,1H,10H,10H-Perfluorodecane-1,10-diol] | 4.08 µM | 100% | 100% |  |  | 19.5 µM | 0% | BMC swim bladder non-inflation (Danio rerio embryo/larva [5]; [22]): 3.47 µM
11 | O=C(O)C(F)(F)C(F)(F)C(F)(F)C(F)(F)C(F)(F)C(F)(F)C(F)(F)C(F)(F)C(F)(F)F [Perfluorodecanoic acid] | 9.34 µM | 100% | 100% |  |  | 11.2 µM | 0% | BMC swim bladder non-inflation (Danio rerio embryo/larva [5]; [21]): 10.1 µM
12 | O=P(O)(O)CCC(F)(F)C(F)(F)C(F)(F)C(F)(F)C(F)(F)C(F)(F)C(F)(F)C(F)(F)F [((Perfluorooctyl)ethyl)phosphonic acid] (max tested concentration (log10 uM): 2) |  |  |  |  |  |  |  | BMC general abnormality (Danio rerio embryo/larva [10]): 1.31 µM; max % larvae (Danio rerio embryo/larva [11]): 0%; max % larvae (Danio rerio embryo/larva [12]): 0%; max % larvae (Danio rerio embryo/larva [13]): 50%; max % larvae generally abnormal across tested concentrations (Danio rerio embryo/larva [14]): 60%; max % larvae (Danio rerio embryo/larva [15]): 100%; max % larvae (Danio rerio embryo/larva [16]): 50%; max % larvae (Danio rerio embryo/larva [17]): 20%; max % larvae (Danio rerio embryo/larva [18]): 0%; max % larvae (Danio rerio embryo/larva [19]): 5%
13 | OCCCC(F)(F)C(F)(F)C(F)(F)C(F)(F)C(F)(F)C(F)(F)C(F)(F)F [7:3 Fluorotelomer alcohol] (max tested concentration (log10 uM): 2) |  |  |  |  |  |  |  | BMC general abnormality (Danio rerio embryo/larva [10]): 44.8 µM; max % larvae (Danio rerio embryo/larva [11]): 0%; max % larvae (Danio rerio embryo/larva [12]): 0%; max % larvae (Danio rerio embryo/larva [13]): 0%; max % larvae generally abnormal across tested concentrations (Danio rerio embryo/larva [14]): 22.2%; max % larvae (Danio rerio embryo/larva [15]): 22.2%; max % larvae (Danio rerio embryo/larva [16]): 19.4%; max % larvae (Danio rerio embryo/larva [17]): 11.1%; max % larvae (Danio rerio embryo/larva [18]): 16.7%; max % larvae (Danio rerio embryo/larva [19]): 0%
14 | OCCC(F)(F)C(F)(F)C(F)(F)C(F)(F)C(F)(F)C(F)(F)C(F)(F)C(F)(F)F [2-(Perfluorooctyl)ethanol] |  | 25% | 58.3% |  |  | 89 µM | 0% | 
15 | OCC(F)(F)C(F)(F)C(F)(F)C(F)(F)C(F)(F)C(F)(F)CO [1H,1H,8H,8H-Perfluorooctane-1,8-diol] | 41.3 µM | 0% | 91.7% | 50.7 µM | 10.4 µM |  | 0% | BMC craniofacial defects (Danio rerio embryo/larva [9]; [20]): 91 µM
16 | O=C(O)C(F)(F)OC(F)(F)C(F)(F)OC(F)(F)C(F)(F)OC(F)(F)C(F)(F)C(F)(F)C(F)(F)F [Perfluoro-3,6,9-trioxatridecanoic acid] | 2.47 µM | 100% | 100% |  |  | 7.79 µM | 0% | BMC edema (Danio rerio embryo/larva [4]; [22]): 3.13 µM; BMC swim bladder non-inflation (Danio rerio embryo/larva [5]; [22]): 1.3 µM; BMC abnormal position (Danio rerio embryo/larva [6]; [22]): 8.04 µM
